From PubChem BioAssay AID1259407 (Chemical Carcinogenesis Research Information System (CCRIS), 2018)
The source made the active and inactive calls. The rule behind the calls is not given here.

System: CCRIS mutagenicity, Ames/micronucleus/aberration tests
Assay: CCRIS mutagenicity studies
[1] = Test System: AMES SALMONELLA TYPHIMURIUM, Strain/Indicator: TA100, Metabolic Activation: RAT, LIVER, S-9, PHENOBARBITAL AND 5,6-BENZOFLAVONE, Method: PREINCUBATION

Measured: mutagenic call

O=c1ccc2cc(O[C@@H]3O[C@H](CO)[C@@H](O)[C@H](O)[C@H]3O)c(O)cc2o1
inactive: Test System: AMES SALMONELLA TYPHIMURIUM, Strain/Indicator: TA92, Metabolic Activation: NONE, Method: SPOT TEST inactive; negative | Test System: AMES SALMONELLA TYPHIMURIUM, Strain/Indicator: TA92, Metabolic Activation: RAT, LIVER, S-9, AROCLOR 1254, Method: SPOT TEST inactive; negative | Test System: AMES SALMONELLA TYPHIMURIUM, Strain/Indicator: TA94, Metabolic Activation: NONE, Method: SPOT TEST inactive; negative | Test System: AMES SALMONELLA TYPHIMURIUM, Strain/Indicator: TA94, Metabolic Activation: RAT, LIVER, S-9, AROCLOR 1254, Method: SPOT TEST inactive; negative | Test System: AMES SALMONELLA TYPHIMURIUM, Strain/Indicator: TA97, Metabolic Activation: NONE, Method: SPOT TEST inactive; negative | Test System: AMES SALMONELLA TYPHIMURIUM, Strain/Indicator: TA97, Metabolic Activation: RAT, LIVER, S-9, AROCLOR 1254, Method: SPOT TEST inactive; negative | Test System: AMES SALMONELLA TYPHIMURIUM, Strain/Indicator: TA98, Metabolic Activation: NONE, Method: SPOT TEST inactive; negative | Test System: AMES SALMONELLA TYPHIMURIUM, Strain/Indicator: TA98, Metabolic Activation: RAT, LIVER, S-9, AROCLOR 1254, Method: SPOT TEST inactive; negative | Test System: AMES SALMONELLA TYPHIMURIUM, Strain/Indicator: TA100, Metabolic Activation: NONE, Method: SPOT TEST inactive; negative | Test System: AMES SALMONELLA TYPHIMURIUM, Strain/Indicator: TA100, Metabolic Activation: RAT, LIVER, S-9, AROCLOR 1254, Method: SPOT TEST inactive; negative | Test System: AMES SALMONELLA TYPHIMURIUM, Strain/Indicator: TA102, Metabolic Activation: NONE, Method: SPOT TEST inactive; negative | Test System: AMES SALMONELLA TYPHIMURIUM, Strain/Indicator: TA102, Metabolic Activation: RAT, LIVER, S-9, AROCLOR 1254, Method: SPOT TEST inactive; negative

O=C1C=CC(=O)c2ccccc21
active: End Point: In vitro chromosomal aberrations, Test System: Chinese hamster lung (CHL/IU) cells, Metabolic Activation: Rat, Liver, S9, Phenobarbital and 5,6-benzoflavone active; positive (structural changes). toxic at 0.014 mg/ml. | Test System: AMES SALMONELLA TYPHIMURIUM, Strain/Indicator: TA97, Metabolic Activation: RAT, LIVER, S-9, PHENOBARBITAL AND 5,6-BENZOFLAVONE, Method: PREINCUBATION active; positive | Test System: AMES SALMONELLA TYPHIMURIUM, Strain/Indicator: TA100, Metabolic Activation: NONE, Method: PREINCUBATION active; positive | [1] active; positive | Test System: AMES SALMONELLA TYPHIMURIUM, Strain/Indicator: TA102, Metabolic Activation: RAT, LIVER, S-9, PHENOBARBITAL AND 5,6-BENZOFLAVONE, Method: PREINCUBATION active; positive | Test System: AMES SALMONELLA TYPHIMURIUM, Strain/Indicator: TA104, Metabolic Activation: NONE, Method: PREINCUBATION active; positive | Test System: AMES SALMONELLA TYPHIMURIUM, Strain/Indicator: TA104, Metabolic Activation: RAT, LIVER, S-9, PHENOBARBITAL AND 5,6-BENZOFLAVONE, Method: PREINCUBATION active; positive | Test System: AMES SALMONELLA TYPHIMURIUM, Strain/Indicator: TA2637, Metabolic Activation: NONE, Method: PREINCUBATION active; positive | Test System: AMES SALMONELLA TYPHIMURIUM, Strain/Indicator: TA2637, Metabolic Activation: RAT, LIVER, S-9, PHENOBARBITAL AND 5,6-BENZOFLAVONE, Method: PREINCUBATION active; positive
inactive: Test System: AMES SALMONELLA TYPHIMURIUM, Strain/Indicator: TA97, Metabolic Activation: NONE, Method: PREINCUBATION inactive; negative | Test System: AMES SALMONELLA TYPHIMURIUM, Strain/Indicator: TA97, Metabolic Activation: NONE, Method: STANDARD PLATE inactive; negative | Test System: AMES SALMONELLA TYPHIMURIUM, Strain/Indicator: TA97, Metabolic Activation: RAT, LIVER, S-9, PCB, Method: STANDARD PLATE inactive; negative | Test System: AMES SALMONELLA TYPHIMURIUM, Strain/Indicator: TA98, Metabolic Activation: NONE, Method: PREINCUBATION inactive; negative | Test System: AMES SALMONELLA TYPHIMURIUM, Strain/Indicator: TA98, Metabolic Activation: NONE, Method: STANDARD PLATE inactive; negative | Test System: AMES SALMONELLA TYPHIMURIUM, Strain/Indicator: TA98, Metabolic Activation: RAT, LIVER, S-9, PCB, Method: STANDARD PLATE inactive; negative | Test System: AMES SALMONELLA TYPHIMURIUM, Strain/Indicator: TA98, Metabolic Activation: RAT, LIVER, S-9, PHENOBARBITAL AND 5,6-BENZOFLAVONE, Method: PREINCUBATION inactive; negative | Test System: AMES SALMONELLA TYPHIMURIUM, Strain/Indicator: TA100, Metabolic Activation: NONE, Method: STANDARD PLATE inactive; negative | Test System: AMES SALMONELLA TYPHIMURIUM, Strain/Indicator: TA100, Metabolic Activation: RAT, LIVER, S-9, PCB, Method: STANDARD PLATE inactive; negative | Test System: AMES SALMONELLA TYPHIMURIUM, Strain/Indicator: TA102, Metabolic Activation: NONE, Method: PREINCUBATION inactive; negative | Test System: AMES SALMONELLA TYPHIMURIUM, Strain/Indicator: TA1535, Metabolic Activation: NONE, Method: PREINCUBATION inactive; negative | Test System: AMES SALMONELLA TYPHIMURIUM, Strain/Indicator: TA1535, Metabolic Activation: RAT, LIVER, S-9, PHENOBARBITAL AND 5,6-BENZOFLAVONE, Method: PREINCUBATION inactive; negative | Test System: AMES SALMONELLA TYPHIMURIUM, Strain/Indicator: TA1537, Metabolic Activation: NONE, Method: PREINCUBATION inactive; negative | Test System: AMES SALMONELLA TYPHIMURIUM, Strain/Indicator: TA1537, Metabolic Activation: RAT, LIVER, S-9, PHENOBARBITAL AND 5,6-BENZOFLAVONE, Method: PREINCUBATION inactive; negative | Test System: AMES SALMONELLA TYPHIMURIUM, Strain/Indicator: TA1538, Metabolic Activation: NONE, Method: PREINCUBATION inactive; negative | Test System: AMES SALMONELLA TYPHIMURIUM, Strain/Indicator: TA1538, Metabolic Activation: RAT, LIVER, S-9, PHENOBARBITAL AND 5,6-BENZOFLAVONE, Method: PREINCUBATION inactive; negative | Test System: Ames Salmonella typhimurium, Strain/Indicator: TA97, Metabolic Activation: None, Method: Preincubation inactive; negative | Test System: Ames Salmonella typhimurium, Strain/Indicator: TA97, Metabolic Activation: Rat, Liver, S9, Aroclor 1254, Method: Preincubation inactive; negative | Test System: Ames Salmonella typhimurium, Strain/Indicator: TA98, Metabolic Activation: None, Method: Preincubation inactive; negative | Test System: Ames Salmonella typhimurium, Strain/Indicator: TA98, Metabolic Activation: Rat, Liver, S9, Aroclor 1254, Method: Preincubation inactive; negative | Test System: Ames Salmonella typhimurium, Strain/Indicator: TA100, Metabolic Activation: None, Method: Preincubation inactive; negative | Test System: Ames Salmonella typhimurium, Strain/Indicator: TA100, Metabolic Activation: Rat, Liver, S9, Aroclor 1254, Method: Preincubation inactive; negative | Test System: Ames Salmonella typhimurium, Strain/Indicator: TA102, Metabolic Activation: None, Method: Preincubation inactive; negative | Test System: Ames Salmonella typhimurium, Strain/Indicator: TA102, Metabolic Activation: Rat, Liver, S9, Aroclor 1254, Method: Preincubation inactive; negative

Fc1cc2cccnc2c2ncccc12
active: [1] active; positive
